# Laboratory results taken from US20030176456A1, “Methods for reducing alcohol cravings in chronic alcoholics” (priority 2001, published 2003).
# Read-outs that look alike come from different tables or passages of the source.
# Tests used:
# α1β3γ2 GABAA receptor [1] = target: T1, α1β3γ2 GABAA receptor (Homo sapiens, UniProt P14867+P18507); assay: Binding affinity at recombinant GABAA receptors (Ltk cells stably transfected); details: recombinant αxβ3γ2; read-out: Ki α1
# T1 construct: expressed in transfected cells
# α2β3γ2 GABAA receptor [2] = target: T2, α2β3γ2 GABAA receptor (Homo sapiens, UniProt P18507+P47869); assay: as above; details: recombinant αxβ3γ2; read-out: Ki α2
# T2 construct: expressed in transfected cells
# α5β3γ2 GABAA receptor [3] = target: T3, α5β3γ2 GABAA receptor (Homo sapiens, UniProt P18507+P31644); assay: as above
# T3 construct: expressed in transfected cells
# α6β3γ2 GABAA receptor [4] = target: T4, α6β3γ2 GABAA receptor (Homo sapiens, UniProt P18507+Q16445); assay: as above
# T4 construct: expressed in transfected cells
# [5] = target: wild type BDZ receptors (cerebral cortical membranes); assay: Radioligand displacement at cerebral cortical membranes; assay type: binding; details: read-out: Displacement of [3H] flunitrazepam in vitro, IC50; rat cerebral cortical membranes; mean of three or more experiments
# Method: [^3H] […] In brief, rats were sacrificed by decapitation, and the cerebral cortex removed. […] Tissue was resuspended in an equal volume of buffer and recentrifuged. This procedure was repeated a total of three times and the tissue resuspended in 50 volumes of buffer. Incubations (1 mL) consisted of tissue (0.3 mL), drug solution (0.1 mL), buffer (0.5 mL) and radioligand (0.1 mL). […] The IC50 values were estimated using Hill plots.
# α3β3γ2 GABAA receptor [6] = target: T5, α3β3γ2 GABAA receptor (Homo sapiens, UniProt P18507+P34903); assay: Binding affinity at recombinant GABAA receptors (Ltk cells stably transfected); details: recombinant αxβ3γ2; read-out: Ki α3
# T5 construct: expressed in transfected cells
# HAD-1 rats = assay type: in vivo, rat; details: i.p.; chlordiazepoxide 10 mg/kg, βCCt 15 mg/kg; 10 min open field
# Method: (§1) Ambulatory count in the open field was recorded individually for 10 min in a plexiglas chamber (42 cm×42 cm 30 cm) using a Digiscan activity monitoring system (Acuscan Electronics, Columbus, Ohio, USA) (for details of the monitoring system see June et al., 1998d).
# (§2) βCCt (15 mg/kg i.p.) and chlordiazepoxide (10 mg/kg i.p.) were administered 15 and 30 min, respectively, prior to the rats being placed in the open field. EtOH (1.25 g/kg) was given 5 min prior to placing the rats in the open field. When βCCt was given in combination with either chlordiazepoxide or EtOH, it was given 10 min prior to chlordiazepoxide and EtOH. As noted above, βCCt was administered in Tween-20 solution, while all other drugs were mixed in sterile saline. Animals were tested between 9 am-3 pm.
# (§3) Ambulatory count in the open field was recorded individually for 10 min in a plexiglas chamber (42 cm×42 cm 30 cm) using a Digiscan activity monitoring system (Acuscan Electronics, Columbus, Ohio, USA) (for details of the monitoring system see June et al., 1998b).
# (§4) βCCt (5-60 mg/kg i.p.) and chlordiazepoxide (2.5, 5, 10 mg/kg i.p.) were administered 15 and 30 min, respectively, prior to being placed in the plus maze or open field. EtOH (1.25 g/kg) was given 5 min prior to placing the rats in the open field. When βCCt was given in combination with either chlordiazepoxide or EtOH, it was given 10 min prior to chlordiazepoxide and EtOH. As noted above, βCCt was administered in Tween-20 solution, while all other drugs were mixed in sterile saline. Animals were tested between 9am-3 pm.
# P rats [7] = assay type: in vivo, rat; details: i.p.; chlordiazepoxide 10 mg/kg, βCCt 15 mg/kg; 10 min open field
# Method: as §1, §2, §3, §4
# α1β3γ2 GABAA receptor [8] = target: T1, α1β3γ2 GABAA receptor; details: footnoted b (Schering Labs, unpublished) or c (McKernan et al., 2000); read-out: Ki α1; cited from earlier work
# α2β3γ2 GABAA receptor [9] = target: T2, α2β3γ2 GABAA receptor; details: footnoted b or c; read-out: Ki α2; cited from earlier work
# α3β3γ2 GABAA receptor [10] = target: T5, α3β3γ2 GABAA receptor; details: footnoted b or c; read-out: Ki α3; cited from earlier work
# α5β3γ2 GABAA receptor [11] = target: T3, α5β3γ2 GABAA receptor; details: footnoted b or c; read-out: Ki α5; cited from earlier work
# α6β3γ2 GABAA receptor [12] = target: T4, α6β3γ2 GABAA receptor; details: footnoted b or c; read-out: Ki α6; cited from earlier work
# P rats [13] = assay: EtOH and sucrose responding after oral (gavage) administration; assay type: in vivo, rat
# From the text: In this study we compared the suppressant effect of βCCt and 3-PBC with naltrexone, a currently used alcohol antagonist on the market. As it is shown in FIG. 29A-B, orally administered βCCt can reduce alcohol responding, however, the effects are not dose related. In addition, 24 hr after administration of βCCt, it continues to reduce alcohol responding with selected doses. […] The suppressant effects of naltrexone in reducing alcohol responding are also dissipated 24 hr after the administration. […] Unlike naltrexone, the suppressant effects observed by βCCt and 3-PBC are selective for alcohol, and not reinforcers in general.
# GABAA α1β3γ2 receptors = target: T6, GABAA α1β3γ2 receptors (Rattus norvegicus, UniProt P18508+P62813); assay: Xenopus oocyte expression assay, modulation of GABA current; assay type: cell-based; details: saturating 1-10 μM modulator with EC50 GABA (50 μM); mean±S.D.
# T6 construct: expressed in transfected cells; host or cells: Xenopus laevis oocytes injected with cRNA
# GABAA α2β3γ2 receptors = assay: as above; assay type: cell-based, rat; details: saturating 1-10 μM modulator with EC50 GABA (50 μM); mean±S.D.
# GABAA α3β3γ2 receptors = assay: as above; assay type: cell-based, rat; details: saturating 1-10 μM modulator with EC50 GABA (30 μM); mean±S.D.
# GABAA α4β3γ2 receptors = assay: as above; assay type: cell-based, rat
# GABAA α5β3γ2 receptors = target: T7, GABAA α5β3γ2 receptors (Rattus norvegicus, UniProt P18508+P19969); assay: as above; assay type: cell-based; details: saturating 1-10 μM modulator with EC50 GABA (30 μM); mean±S.D.
# T7 construct: expressed in transfected cells; host or cells: Xenopus laevis oocytes injected with cRNA
# [14] = system: recombinant GABAA α1 through α5 (β3γ2) receptors; assay: Xenopus oocyte expression assay, result stated across several subtypes; assay type: cell-based, rat; details: saturating concentration; compared with 3-PBC
# [15] = system: alcohol-preferring (P) rats; details: parenteral and oral administration (June et al., 1998b); cited from earlier work
# squirrel monkeys = details: Rowlett et al., unpublished observation; cited from earlier work
# [16] = June et al., 1998e; cited from earlier work
# [17] = recombinant αxβ3γ2, read-out: Ki α5
# [18] = recombinant αxβ3γ2, read-out: Ki α6
# T1 sequence (P14867 28-456): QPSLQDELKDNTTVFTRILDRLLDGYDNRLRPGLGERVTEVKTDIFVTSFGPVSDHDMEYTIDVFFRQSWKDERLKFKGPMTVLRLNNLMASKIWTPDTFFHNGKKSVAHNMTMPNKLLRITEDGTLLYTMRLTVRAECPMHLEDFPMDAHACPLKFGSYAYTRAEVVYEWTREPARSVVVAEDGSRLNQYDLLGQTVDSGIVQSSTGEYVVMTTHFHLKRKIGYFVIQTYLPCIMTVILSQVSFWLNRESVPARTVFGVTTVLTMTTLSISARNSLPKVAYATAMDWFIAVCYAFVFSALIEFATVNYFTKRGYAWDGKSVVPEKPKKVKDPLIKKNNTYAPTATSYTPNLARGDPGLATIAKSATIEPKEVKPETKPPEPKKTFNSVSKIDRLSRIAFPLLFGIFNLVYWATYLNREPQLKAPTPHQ
# T1 sequence (P28472 26-473 partner): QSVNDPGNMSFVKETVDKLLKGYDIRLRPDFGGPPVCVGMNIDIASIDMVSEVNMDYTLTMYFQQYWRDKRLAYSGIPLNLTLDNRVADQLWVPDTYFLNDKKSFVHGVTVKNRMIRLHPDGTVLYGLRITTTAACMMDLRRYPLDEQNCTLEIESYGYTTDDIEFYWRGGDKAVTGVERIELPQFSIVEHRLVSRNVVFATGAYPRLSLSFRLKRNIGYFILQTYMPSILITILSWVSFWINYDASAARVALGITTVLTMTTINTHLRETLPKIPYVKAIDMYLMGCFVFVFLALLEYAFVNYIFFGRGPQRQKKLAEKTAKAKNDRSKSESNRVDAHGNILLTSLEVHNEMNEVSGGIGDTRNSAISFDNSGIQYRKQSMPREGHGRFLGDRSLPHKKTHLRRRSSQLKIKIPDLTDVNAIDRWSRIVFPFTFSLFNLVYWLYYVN
# T1 sequence (P18507 40-475): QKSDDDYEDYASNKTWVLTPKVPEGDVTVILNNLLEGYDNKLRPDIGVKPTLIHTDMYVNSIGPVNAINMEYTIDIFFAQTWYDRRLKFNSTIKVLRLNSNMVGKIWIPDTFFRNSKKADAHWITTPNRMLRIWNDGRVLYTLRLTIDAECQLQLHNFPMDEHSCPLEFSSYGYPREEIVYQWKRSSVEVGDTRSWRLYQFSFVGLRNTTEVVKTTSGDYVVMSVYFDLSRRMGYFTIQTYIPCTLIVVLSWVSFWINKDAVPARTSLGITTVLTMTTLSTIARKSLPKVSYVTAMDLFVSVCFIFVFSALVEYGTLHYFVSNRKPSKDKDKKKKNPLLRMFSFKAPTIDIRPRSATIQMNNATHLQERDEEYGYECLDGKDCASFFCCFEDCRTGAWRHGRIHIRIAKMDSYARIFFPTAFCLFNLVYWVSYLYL
# T2 sequence (P47869 29-451): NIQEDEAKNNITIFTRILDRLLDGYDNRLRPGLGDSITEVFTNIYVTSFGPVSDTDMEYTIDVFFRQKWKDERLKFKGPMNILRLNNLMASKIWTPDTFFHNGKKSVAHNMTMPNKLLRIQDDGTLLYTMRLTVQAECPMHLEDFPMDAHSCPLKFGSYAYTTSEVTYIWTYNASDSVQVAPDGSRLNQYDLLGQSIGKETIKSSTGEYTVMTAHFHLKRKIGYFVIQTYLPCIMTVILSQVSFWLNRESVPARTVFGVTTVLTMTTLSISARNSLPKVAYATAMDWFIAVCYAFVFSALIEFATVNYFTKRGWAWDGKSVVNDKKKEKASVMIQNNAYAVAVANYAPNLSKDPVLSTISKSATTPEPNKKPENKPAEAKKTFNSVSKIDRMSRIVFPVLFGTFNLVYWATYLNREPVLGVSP
# T2 sequence (P28472 26-473 partner): as the sequence (P28472 26-473 partner) above
# T2 sequence (P18507 40-475): as the sequence (P18507 40-475) above
# T3 sequence (P31644 32-462): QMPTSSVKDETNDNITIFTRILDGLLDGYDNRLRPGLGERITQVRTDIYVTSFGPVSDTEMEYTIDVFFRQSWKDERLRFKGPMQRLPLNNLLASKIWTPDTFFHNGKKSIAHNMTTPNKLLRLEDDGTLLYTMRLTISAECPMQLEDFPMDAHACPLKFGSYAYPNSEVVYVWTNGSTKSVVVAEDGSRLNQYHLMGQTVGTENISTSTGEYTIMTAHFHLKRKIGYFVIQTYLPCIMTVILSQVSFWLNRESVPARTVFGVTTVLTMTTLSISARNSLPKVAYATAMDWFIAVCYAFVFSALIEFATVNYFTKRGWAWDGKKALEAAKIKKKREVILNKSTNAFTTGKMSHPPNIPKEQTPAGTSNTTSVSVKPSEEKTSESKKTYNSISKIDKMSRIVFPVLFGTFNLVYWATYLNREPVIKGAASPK
# T3 sequence (P28472 26-473 partner): as the sequence (P28472 26-473 partner) above
# T3 sequence (P18507 40-475): as the sequence (P18507 40-475) above
# T4 sequence (Q16445 20-453): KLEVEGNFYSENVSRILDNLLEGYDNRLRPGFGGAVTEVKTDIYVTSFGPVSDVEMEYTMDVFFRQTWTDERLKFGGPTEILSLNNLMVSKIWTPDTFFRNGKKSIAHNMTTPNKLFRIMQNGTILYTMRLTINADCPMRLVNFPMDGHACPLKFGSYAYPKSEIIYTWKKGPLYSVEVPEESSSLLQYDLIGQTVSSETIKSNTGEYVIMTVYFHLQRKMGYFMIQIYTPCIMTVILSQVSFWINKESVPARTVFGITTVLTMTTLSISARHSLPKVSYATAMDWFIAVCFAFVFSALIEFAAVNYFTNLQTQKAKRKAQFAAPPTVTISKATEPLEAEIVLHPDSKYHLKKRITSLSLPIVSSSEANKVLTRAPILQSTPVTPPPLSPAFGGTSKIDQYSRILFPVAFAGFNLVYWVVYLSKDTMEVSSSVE
# T4 sequence (P28472 26-473 partner): as the sequence (P28472 26-473 partner) above
# T4 sequence (P18507 40-475): as the sequence (P18507 40-475) above
# T5 sequence (P34903 29-492): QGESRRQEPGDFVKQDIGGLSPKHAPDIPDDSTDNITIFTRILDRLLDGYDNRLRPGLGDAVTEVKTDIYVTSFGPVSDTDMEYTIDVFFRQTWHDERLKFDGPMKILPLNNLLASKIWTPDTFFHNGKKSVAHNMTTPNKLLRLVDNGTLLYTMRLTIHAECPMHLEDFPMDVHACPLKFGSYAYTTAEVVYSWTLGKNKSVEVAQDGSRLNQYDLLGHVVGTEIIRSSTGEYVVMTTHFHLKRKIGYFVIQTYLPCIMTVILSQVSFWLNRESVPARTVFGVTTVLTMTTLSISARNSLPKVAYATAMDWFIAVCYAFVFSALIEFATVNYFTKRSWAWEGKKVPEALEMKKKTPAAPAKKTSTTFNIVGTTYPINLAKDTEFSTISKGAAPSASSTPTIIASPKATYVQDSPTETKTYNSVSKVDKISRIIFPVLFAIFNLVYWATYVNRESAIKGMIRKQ
# T5 sequence (P28472 26-473 partner): as the sequence (P28472 26-473 partner) above
# T5 sequence (P18507 40-475): as the sequence (P18507 40-475) above
# T7 sequence (P19969 32-464 limits assumed): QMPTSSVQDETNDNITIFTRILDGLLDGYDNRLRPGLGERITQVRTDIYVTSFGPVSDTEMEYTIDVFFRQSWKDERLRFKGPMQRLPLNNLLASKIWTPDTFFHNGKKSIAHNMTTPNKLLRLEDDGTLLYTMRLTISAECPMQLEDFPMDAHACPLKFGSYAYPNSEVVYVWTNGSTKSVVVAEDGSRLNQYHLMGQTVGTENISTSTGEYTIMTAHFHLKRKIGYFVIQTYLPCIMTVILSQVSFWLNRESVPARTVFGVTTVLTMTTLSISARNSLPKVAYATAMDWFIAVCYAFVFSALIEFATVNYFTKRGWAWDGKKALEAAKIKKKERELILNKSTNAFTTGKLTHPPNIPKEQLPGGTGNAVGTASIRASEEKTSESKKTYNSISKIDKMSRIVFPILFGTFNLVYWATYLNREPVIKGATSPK
# T7 sequence (P63079 26-473 partner): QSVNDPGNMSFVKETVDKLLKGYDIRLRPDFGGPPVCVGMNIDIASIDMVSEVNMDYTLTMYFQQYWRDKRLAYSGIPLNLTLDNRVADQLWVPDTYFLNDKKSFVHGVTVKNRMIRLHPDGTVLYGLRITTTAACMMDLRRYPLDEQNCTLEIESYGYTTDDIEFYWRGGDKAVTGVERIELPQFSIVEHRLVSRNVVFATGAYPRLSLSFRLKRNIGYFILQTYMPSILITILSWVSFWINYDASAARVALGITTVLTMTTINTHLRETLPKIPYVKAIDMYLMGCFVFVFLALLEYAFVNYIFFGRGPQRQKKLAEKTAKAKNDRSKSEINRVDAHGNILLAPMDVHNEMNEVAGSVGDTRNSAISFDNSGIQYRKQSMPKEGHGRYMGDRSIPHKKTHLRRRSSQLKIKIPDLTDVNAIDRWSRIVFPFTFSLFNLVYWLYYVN
# T7 sequence (P18508 39-466): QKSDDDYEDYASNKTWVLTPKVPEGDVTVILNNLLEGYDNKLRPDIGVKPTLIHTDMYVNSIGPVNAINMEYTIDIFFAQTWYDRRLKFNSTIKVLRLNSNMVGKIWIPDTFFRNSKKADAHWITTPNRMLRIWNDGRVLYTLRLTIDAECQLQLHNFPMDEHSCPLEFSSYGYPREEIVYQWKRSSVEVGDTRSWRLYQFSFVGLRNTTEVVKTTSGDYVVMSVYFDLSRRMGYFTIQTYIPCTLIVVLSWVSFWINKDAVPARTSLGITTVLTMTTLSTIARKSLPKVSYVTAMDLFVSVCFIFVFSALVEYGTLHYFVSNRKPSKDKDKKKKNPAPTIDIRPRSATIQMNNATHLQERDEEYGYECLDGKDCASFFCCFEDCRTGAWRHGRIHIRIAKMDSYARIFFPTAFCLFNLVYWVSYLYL
structure (smiles),measurement,setting,value
CCOc1cc2c(cn1)[nH]c1ccccc12 [3-EBC],Ki,α1β3γ2 GABAA receptor [1],6.43 nM
same,Ki,α2β3γ2 GABAA receptor [2],25.1 nM
same,Ki,α5β3γ2 GABAA receptor [3]; [17],868 nM
same,Ki,α6β3γ2 GABAA receptor [4]; [18],> 1000 nM
same,IC50,[5],24 nM
COc1cc2c(cn1)[nH]c1ccccc12 [3-methoxy],IC50,[5],124 nM
"Cc1nnc2ccc(-c3cccc(C(F)(F)F)c3)nn12 [CL218, 872, reference compound]",Ki,α1β3γ2 GABAA receptor [1],57 nM
same,Ki,α2β3γ2 GABAA receptor [2],1960 nM
same,Ki,α3β3γ2 GABAA receptor [6],1160 nM
same,Ki,α5β3γ2 GABAA receptor [3]; [17],561 nM
same,Ki,α6β3γ2 GABAA receptor [4]; [18],> 1000 nM
"CNC1=Nc2ccc(Cl)cc2C(c2ccccc2)=[N+]([O-])C1 [Chlordiazepoxide, reference compound]","locomotor activity, drug given alone",HAD-1 rats,profound and comparable reduction in locomotor activity
same,"locomotor activity, drug given alone",P rats [7],profound and comparable reduction in locomotor activity
"Cn1ncnc1COc1nn2c(-c3cc(F)ccc3F)nnc2cc1C(C)(C)C [L-838, 417]",Ki,α1β3γ2 GABAA receptor [8],0.79 nM
same,Ki,α2β3γ2 GABAA receptor [9],0.67 nM
same,Ki,α3β3γ2 GABAA receptor [10],0.67 nM
same,Ki,α5β3γ2 GABAA receptor [11],267 nM
same,Ki,α6β3γ2 GABAA receptor [12],2.25 nM
"O=C1CC[C@@]2(O)[C@H]3Cc4ccc(O)c5c4[C@@]2(CCN3CC2CC2)[C@H]1O5 [Naltrexone, naltrexone, reference compound]",responding for sucrose,P rats [13]; oral (gavage) 75 mg/kg,significantly reduces responding for sucrose
same,EtOH responding,"P rats [13]; oral (gavage), βCCt 15 & 30 mg/kg, 3-PBC 30-75 mg/kg, naltrexone 30-75 mg/kg",significantly reduces EtOH responding
same,EtOH responding 24 hours after administration,"P rats [13]; oral (gavage), βCCt 15 & 75 mg/kg",dissipated
"CCOC(=O)c1ncn2c1CN(C)C(=O)c1cc(F)ccc1-2 [Ro15-1788, flumazenil]","% of GABA response, α1",GABAA α1β3γ2 receptors,99±5%
same,"% of GABA response, α2",GABAA α2β3γ2 receptors,115±4%
same,"% of GABA response, α3",GABAA α3β3γ2 receptors,118±7%
same,"% of GABA response, α4","GABAA α4β3γ2 receptors; saturating 1-10 μM modulator with EC50 GABA (10 μM), mean±S.D.",132±6%
same,"% of GABA response, α5",GABAA α5β3γ2 receptors,96±6%
same,efficacy profile at the α1 through α5 receptors,[14],statistically similar to 3-PBC
same,alcohol-maintained responding,[15],did not alter EtOH-maintained responding
same,activity in observational studies vs saline controls,squirrel monkeys,decreased overall activity
CCOC(=O)c1ncc2[nH]c3cccc(OC(C)C)c3c2c1C [ZK 93426],"% of GABA response, α1",GABAA α1β3γ2 receptors,146+11%
same,"% of GABA response, α2",GABAA α2β3γ2 receptors,140±13%
same,"% of GABA response, α3",GABAA α3β3γ2 receptors,147±10%
same,"% of GABA response, α4",GABAA α4β3γ2 receptors,137±8%
same,"% of GABA response, α5",GABAA α5β3γ2 receptors,~96±6%
same,Ki,α1β3γ2 GABAA receptor [8],11 nM
same,Ki,α2β3γ2 GABAA receptor [9],31 nM
same,Ki,α3β3γ2 GABAA receptor [10],24 nM
same,Ki,α5β3γ2 GABAA receptor [11],3 nM
same,Ki,α6β3γ2 GABAA receptor [12],1600 nM
same,alcohol-maintained responding,[15],can selectively reduce alcohol-maintained responding
same,blocking the sedative actions of alcohol,[16],capable of blocking
"Cc1ccc(-c2nc3ccc(C)cn3c2CC(=O)N(C)C)cc1 [Zolpidem, reference compound]",Ki,α5β3γ2 GABAA receptor [3],> 1000 nM
same,Ki,α6β3γ2 GABAA receptor [4],> 1000 nM
CCOC(=O)c1cc2c(cn1)[nH]c1ccccc12 [βCCE],IC50,[5],5 nM
